From US6103888A, “Mammalian cationic proteins having lipopolysaccharide binding and anti-coagulant activity” (priority 1999, dated 2000)
“And” between values parts separate entries of the source, which are not always exact repeats. Equal values may be shown once.

Key:
factor X = molecular target: T1, factor X (Homo sapiens, UniProt P00742); assay: Factor X activation by tissue factor and factor VII, synthetic substrate S-2222; format: biochemical; conditions: synthetic substrate; listed as 197
T1 construct: purchased Sigma Chemical Co., St. Louis, Mo
T1 sequence (P00742 183-488): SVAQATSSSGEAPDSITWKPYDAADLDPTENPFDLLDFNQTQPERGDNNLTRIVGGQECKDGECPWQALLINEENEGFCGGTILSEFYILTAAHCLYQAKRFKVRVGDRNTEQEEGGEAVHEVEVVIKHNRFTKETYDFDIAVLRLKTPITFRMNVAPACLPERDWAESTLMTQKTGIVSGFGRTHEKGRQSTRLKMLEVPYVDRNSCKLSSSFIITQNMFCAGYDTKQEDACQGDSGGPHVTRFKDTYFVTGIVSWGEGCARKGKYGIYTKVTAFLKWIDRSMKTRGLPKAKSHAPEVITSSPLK
T1 sequence (P00742 41-179): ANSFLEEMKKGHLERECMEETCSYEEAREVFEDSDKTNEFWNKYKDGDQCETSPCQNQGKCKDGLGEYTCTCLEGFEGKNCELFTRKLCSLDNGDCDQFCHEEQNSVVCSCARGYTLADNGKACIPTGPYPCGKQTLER
Protocol: Factor Xa activity using synthetic substrate. A reaction mixture of factor VII (1 unit/ml, 200 μl), factor X (1 unit/ml, 200 μl), tissue factor (2.5 mg/ml, 50 μl), 25 mM-CaCl2 (50 μl) and 50 μl of several concentration of peptide was incubated at 37° C. for 10 min. To 200 Al of the reaction mixture, 60 μl of 4 mM S-2222, a synthetic substrate for factor Xa, and 340 μl of Tris-HCl buffer, pH 8.2, was added and further incubated for 15 min. The reaction was stopped by adding 60 μl of 50% acetic acid, and OD for p-nitroaniline was read at 405 nm.

ddY mice = assay: Tissue factor lethality model; format: in vivo; conditions: for Survival (%): Tissue factor 1.0 mg/mouse IV
Protocol: Tissue factor lethality model. Reference tissue factor (simplastin, 1 mg/mouse) was IV injected into ddY mice (male, 20-week-old, 38-45 g) incubated with or without peptide.
^a Tissue factor (Simplastin, 10 mg/ml was mixed with equal volume of
synthetic peptide 100 μg/ml or 50 μg/ml and 0.2 ml of the mixture
injected IV. ddY mice (20 weeks, 38-45 gm).

factor Xa = molecular target: T2, factor Xa (Homo sapiens, UniProt P00742); assay: Direct Xa inhibition using Xa substrate S2222; format: biochemical; conditions: concentrations over 10 μg/ml
T2 construct: purchased Sigma Chemical Co., St. Louis, Mo
T2 sequence (P00742 235-488 limits assumed): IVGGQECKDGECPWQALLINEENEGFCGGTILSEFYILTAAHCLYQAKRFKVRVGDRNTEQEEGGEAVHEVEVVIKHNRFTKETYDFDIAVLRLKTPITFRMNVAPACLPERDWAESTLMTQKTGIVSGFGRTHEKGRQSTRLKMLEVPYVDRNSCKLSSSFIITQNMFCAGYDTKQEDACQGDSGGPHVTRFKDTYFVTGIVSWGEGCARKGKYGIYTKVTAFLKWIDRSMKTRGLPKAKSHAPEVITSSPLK
T2 sequence (P00742 41-179 limits assumed): as the sequence (P00742 41-179) above
Excerpt: Clotting method: Human plasma (Ortho plasma control, Ortho Diagnostic Co.). ATPP reagent(Organo-technika, Tokyo, Japan). Standard tissue factor, rabbit brain thromboplastin (Simplastin, ONO Pharmaceutical, Tokyo, Japan). Purified human factor VII, factor X, factor Xa (Sigma Chemical Co., St. Louis, Mo.). Russell Viper venom (RVV) and Echis Carinatus venom (ECV, Sigma Co.).
Synthetic chromogenic substrate method: Substrate for factor Xa, S2222 (Kabi, Bz-Ile-Glu-Arg-pNA) was used. Substrate for factor II (prothrombin), Boc-Val-Pro-Arg-pNA (Sigma Chemical Co.) was used.

[1] = system: thioglycolate elicited murine peritoneal exudate cells; assay: RNI generation by thioglycolate elicited peritoneal exudate cells; format: cell-based; conditions: for RNI: RNIP 50 nm
Protocol: From the sequence of the CAP18 cDNA, it was apparent that the putative N-terminal peptide of CAP18 was in fact an internal fragment of the CAP18 protein. We therefore tried to reconfirm the original protein sequence. Neutrophil-derived heparin bound cationic proteins were prepared as described above and applied to a C18 reverse phase HPLC (FIG. 1). We sequenced the major peaks. Peaks at fractions 14.5 and 15.2 correspond to defensins MCP1 and MCP2 (Territo et al. (1989) J. Clin. Invest. 84:2017-2019), respectively. Fraction 25.8 is macrophage related protein 14 (MRP14) (Odink et al. (1987) Nature 330:80-82). The fraction at 20.3 minutes corresponds to a fragment of CAP18 of approximately 4-5 kD. […] The murine macrophage cell line RAW 264.7 (obtained from ATCC) and thioglycollate-elicited murine peritoneal exudate cells are used to produce RNI. Cells are cultured at 1×10^6 /ml. in RPMI-1640 +2.5% FCS in 24 well plates in the presence or absence of different concentrations of LPS or murine rlFNγ. After 24 hr. incubation at 37° C., the cell free supernatant is collected and tested for the presence of RNI. Accumulation of nitrite in the medium is measured by a calorimetric assay based on the Griess reaction (Green et al. (1982) Anal. Biochem. 126:11) using sodium nitrite as standards. Sample (50 μl) is mixed with 50 μl of Griess reagent (1% sulfanilamide, 0.1% naphthalene diamine dihydrochloride, 2.5% H3 PO4) and after 10 min. at room temperature absorbance is read at 570 nm.

Human plasma [2] = assay: Prothrombin time (PT); format: biochemical
Protocol: Prothrombin time (PT). Human plasma (100 μl) was incubated with 100 μl of each peptide at 37° C. for 3 min., then 100 μl of tissue factor (250 μg/ml) CaCl2 was added and clotting time was measured.

human mononuclear cells = assay: LPS-induced tissue factor by human mononuclear cells (clotting assay); format: cell-based
Protocol: Human mononuclear cells were separated from citrated peripheral blood by centrifugation over Sodium-metrizoate-Ficoll (lymphocyte Separation Medium, Japan Antibody Institute, Gumma). The resulting mixed mononuclear cell suspension was washed 3 times with RPMI 1640 media. Cell suspension (1×10^6 /ml) was stimulated with LPS for 16 to 18 hr.
Veronal buffered saline (VBS) was added to the cell pellet, lysed by 3 cycles of freeze/thaw and sonicated for 10 sec with a hand-held sonicator microbe (Handy Sonic, model UR-20P, Tomy Seiko LTD, Tokyo). Tissue factor activity was tested in modified unactivated partial thromboplastin time (7). One tenth ml of cell lysate (1×10^6 /ml) was preincubated with mouse plasma at 37° C. for 3 min. Then 0.1 ml of 25 mM-CaCl2 which contains phospholipid was added to the mixture and clotting time was measured using a fibrometer (Bio Quest Division, Becton Dickinson, Cokeysville, USA). A standard curve obtained from serial two-fold dilutions of rabbit brain thromboplastic (Simplastin, Ono Pharmaceutical Co.) was used to transpose tissue factor activity into arbitrary tissue factor units (1 μg/ml) suspension of rabbit brain was assigned a value of 1,000 units).
The mean tissue factor units+standard error was determined from three to four samples. Student's t test for unpair data was used to determine the statistically significant differences. A two-tailed P value of <0.05 was considered significant. […]

Human plasma [3] = assay: Partial thromboplastin time (PTT); format: biochemical; conditions: dose dependent
Protocol: Partial thromboplastin time (PTT). Human plasma (100 μl) was incubated with each peptide (100 μl) at 37° C. for 3 min., then 100 μl of CaCl2 containing phospholipid was added and clotting time was measured.

[4] = LPS 0.1 μg/ml, peptide HA units: RNIP 2, CAP-18 1, HP-1 4, HP-2 2

For “RNIP: rabbit reactive nitrogen inhibitory protein, amino acids 135-171 of SEQ ID NO:4; purified from granulocytes (Tables 1-3) or synthetic (#197) (GLRKRLRKFRNKIKEKLKKIGQKIQGLLPKLAPRTDY)”, the “IC50, Tissue factor VII, X to Xa” value (factor X) was 0.3 to 0.7 µg/mL, the “Survival (%)” value (ddY mice; Peptide #197 5 μg/mouse) was 43% and the “Survival (%)” value (ddY mice; Peptide #197 10 μg/mouse, p < 0.05 vs tissue factor control) was 57%. For the same substance, the reduction of mortality (ddY mice; tissue factor IV (Simplastin, 1 mg/mouse)) was 57%, the “direct Xa inhibition (in words)” value (factor Xa) was “No evidence of direct Xa inhibition” and the RNI ([1]; IFNγ 500 U/ml, without RNIP 4.0 ± 0.8) was 1.1 µM. For the same substance, the IC50 ([1]; IFNγ stimulated, read-out: IC50 for inhibition of gamma interferon stimulated nitrogen radical release) was under 0.05 µM, the RNI ([1]; LPS + IFNγ 1 ng + 500 U/ml, without RNIP 26 ± 0.6) was 14 ± 0.7 µM and the “inhibition of the prothrombin time (PT), in words” value (Human plasma [2]) was “inhibited”. The “Inhibition (%)” value (human mononuclear cells; [4]) was 51% and 41%, the “Tissue Factor Units, value in parentheses (ratio to unstimulated control)” value (human mononuclear cells; [4]) was 9.0 and the “Δ Units (%)” value (human mononuclear cells; LPS 0.1 μg/ml, relative to LPS alone (100), 960 min) was 49% and 59%. The “Tissue Factor Units, value in parentheses (ratio to unstimulated control)” value (human mononuclear cells; no LPS, peptide alone) was 1.3, the “Tissue factor units” value (human mononuclear cells; no LPS, peptide alone) was 636 ± 141 Units ×10^3 /3.6 × 10^4 cells and the “Δ Units” value (human mononuclear cells; no LPS, peptide alone) was 144 Units. The “inhibition of the partial thromboplastin time (PTT), in words” value (Human plasma [3]) was “inhibited”.
